# Measured values from US6376498B1, “Pharmaceutical, cosmetic and/or food composition with antioxidant properties” (Universite Catholique de Louvain, priority 1997, dated 2002).
# Experiments:
# [1] = tested on: rat hepatocytes; assay: Protection of hepatocytes treated with t-BHP (LDH release, mortality); format: cell-based
# Method: (§1) Primary cultures of hepatocytes were subjected to the action of tert-butyl hydroperoxide (t-BHP) and nitrofurantoin (NF). The action of t-BHF is associated with its direct oxidizing power, while the action of NF results from the production of superoxide anions during its metabolization by the cytochrome P450 of cells.
# The mortality, which is 75% in the controls, reaches only a few % in the presence of 50 μM CLM.
# [2] = tested on: human fibroblasts (MRC-5); assay: Toxicity on human fibroblasts (MRC-5); format: cell-based
# Method: (§2) Coetenteramine was applied to primary cultures of rat hepatocytes cultured in microplates (20,000 cells per well, 200 μl ). The doses of CLM ranged from 1.3×10^−5 to 5×10^−4 M. After a period of 24 hours, their survival was evaluated by measuring the contents of total proteins in each well (Bradford method). […] Similar results were obtained on human fibroblasts (MRC-5) and human intestinal cells (CACO2).
# [3] = Stability towards oxygen (powder and in aqueous and organic solvents; HPLC and TLC analysis); format: physicochemical
# Excerpt: In fact, this molecule is not changed by remaining in an aqueous solvent exposed to air for several days.
# [4] = tested on: rat hepatocytes; assay: Toxicity on primary cultures of rat hepatocytes (24 h, total proteins, Bradford method); format: cell-based; settings: 1.3×10^−5 to 5×10^−4 M CLM
# Method: as §2
# [5] = tested on: low-density lipoproteins (LDL); assay: In vitro oxidation of LDL induced by AAPH (joint dienes, absorbance at 234 nm); format: biochemical; settings: increasing concentrations of CLM, 37° C.
# Excerpt: (§3) Oxidation of the polyunsaturated fatty acids of LDL is accompanied by the formation of joint dienes, which have a maximum absorbance at 234 nm. These joint dienes result from rearrangement of the double bonds of polyunsaturated fatty acids following removal of a […] hydrogen. The increase in the absorption of joint dienes can be measured directly in solution without resorting to extraction of the lipids. A latency phase during which few dienes are produced, a propagation phase during which the absorbance at 234 nm increases rapidly to reach a plateau and a decomposition phase where the aldehydes formed also absorb in the region of 210-240 nm, thus producing a new increase in the absorbance at 234 nm, are observed in succession. Measurement of the conjugated dienes currently seems to be the best indicator of the oxidizability of LDL if pure LDL preparations are available (Esterbauer et al. (1989)). […]
# (§4) To measure the joint dienes, a solution of LDL (final concentration of 50 μg protein/ml PBS buffer, pH 7.4) is incubated in the presence of 5 μM copper or […] and in the absence or in the presence of varying concentrations of CLM in a quartz cell with an optical path of 1 cm. The absorbances at 234 nm of various samples are measured as a function of time on a UV-visible spectrophotometer (DU-8, Beckman). […]
# [6] = tested on: human intestinal cells (CACO2); assay: Toxicity on human intestinal cells (CACO2); format: cell-based
# Method: as §2
# [7] = tested on: human low-density lipoproteins; assay: In vitro oxidation of LDL by copper (joint dienes at 234 nm; TBARS); format: biochemical
# Excerpt: as §3, §4
# [8] = tested on: hepatocytes; assay: Protection of hepatocytes subjected to nitrofurantoin (MTT survival); format: cell-based, rat; settings: 3×10^−4 M NF for 6 hours, 5×10^−5 M CLM, MTT method, % of the controls
# Method: as §1
# FIG. 4 illustrates the survival of hepatocytes subjected to the action of 3×10^−4 M NF for 6 hours. At the end of this treatment, the survival (estimated by the MTT method) was 18% in the control groups. If CLM is added to the culture medium, the survival of the hepatocytes increases regularly, to reach 70% of the controls at 5×10^−5 M CLM.
# [9] = tested on: fibroblasts; assay: Resistance of fibroblasts subjected to t-BHP (MTT cytotoxicity curve); format: cell-based; settings: 10^−5 M CLM, MTT test
# Excerpt: FIG. 5 illustrates the increase in the resistance of fibroblasts subjected to the action of t-BHP by means of 10^−5 M CLM.
compound,measurement,setting,value
Nc1ncc(-c2ccc(O)cc2)nc1Cc1ccccc1 [Coelenteramine],mortality,[1]; 50 μM CLM,only a few %
same,release of lactate dehydrogenase (LDH),[1]; CLM 10 and 50 μM,reduction in the release of lactate dehydrogenase
same,toxicity,[2],absence of toxicity
same,degradation product identified by HPLC and TLC,[3]; aqueous solvent exposed to air for several days,no degradation product
same,stability towards oxygen,[3]; powder and after solubilization in aqueous and organic solvents,excellent stability towards oxygen
same,toxicity (percentage survival of controls),[4],not at all toxic
same,appearance of joint dienes in the oxidation of LDL by AAPH,[5],significant slowing down in the appearance of joint dienes
same,toxicity,[6],absence of toxicity
same,protective action on LDL with respect to oxidation by copper,"[7]; 5 μM copper, 30° C.",significant protective action
same,appearance of TBARS (MDA) in the oxidation of LDL,"[7]; human LDL oxidized by Cu2+, as a function of time",delay in the appearance of TBARS
same,survival of hepatocytes,[8],70%
same,cytotoxicity curve of t-BHP,[9],significant displacement of the cytotoxicity curve
